Results reported in patent US7964613B2 (Asahi Kasei Pharma Corporation, priority 2007, dated 2011).

What was measured:
TNF-α production = assay: Inhibitory effect on TNF-α production in mice (LPS); assay type: in vivo, BALB/c mice; conditions: Mus musculus, 1.5 h; oral administration of 30 mg/kg, LPS 5 μg i.p. 60 minutes later, plasma after 90 minutes; read-out: TNF-α production suppressing action
Method: BALB/c mice (Japan CRJ, famale) were used as experimental animals. Each test compound was dissolved in distilled water at a concentration suitable for the examination. The weight of each mouse was measured, a test compound solution was orally administered in a volume corresponding to 10 ml/kg, and only distilled water was administered to the control group. Each group consisted of five to seven animals. LPS was dissolved in physiological saline, and intraperitoneally administered to each mouse in an amount of 5 μg. The test compound was administered first, and LPS (lipopolysaccharide, Sigma) was administered 60 minutes later. After 90 minutes, blood was collected from the abdominal large vein in the presence of heparin, and plasma was obtained by centrifugation. TNF-α content in the plasma was measured by using the ELISA method.

[1] = test system: rabbit normal intraocular pressure; assay: Intraocular pressure reducing action; assay type: in vivo, Japanese white rabbit; conditions: Oryctolagus cuniculus, topical, read-out: intraocular pressure reducing degree; for inhibition in vivo at 3000 µM: 3 mM aqueous solution, 50 μl to the left eye, max IOP reduction (2, 4, 6 hours) / value immediately before administration
Summary of the method: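 Japanese white rabbits (~2 kg) under topical anaesthesia received 50 μl of a 3 mM aqueous test solution in the left eye, right eye untreated. IOP read by tonometer before and at 2, 4, 6 h; maximal left–right difference divided by pre-dose IOP ×100 gives % reduction.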

human ROCK1 = target: T1, human ROCK1 (Homo sapiens, UniProt Q13464); assay: Measurement of Rho kinase inhibitory activity (ELISA of MBS phosphorylation); assay type: biochemical; conditions: human ROCK1, MBS substrate, 100 μM ATP, 30° C. for 10 minutes
T1 construct: His tag (N); host or cells: insect cells (Sf9)
Method: In this test, human ROCK1 was used as Rho kinase, MBS (myosin binding subunit, subunit constituting myosin phosphatase) was used as the substrate of Rho kinase, and an anti-phosphorylated MBS antibody was used for detection of phosphorylation. The activity for inhibiting Rho kinase was determined by measuring phosphorylation of MBS by the Rho kinase by ELISA in the presence of an appropriately diluted test compound. As the Rho kinase used, a recombinant protein (N-terminal His-tagged recombinant human ROCK1 residues (1Met-[…])) was used, which was produced in insect cells (Sf9) using a sequence (1-727), of which activity was confirmed in the paper of Ishizaki et al. (Ishizaki, T. et al., FEBS Letters, 404, pp 118-124, 1997), based on the sequence of human ROCK1 (p 160 ROCK) described in the report of Ishizaki et al. (Ishizaki, T. et al., EMBO J., 15, pp 1885-1893, 1996). Further, as the MBS protein and anti-phosphorylated MBS antibody, those prepared according to the method described in the paper of Ito et al. (Ito, K et al., J. Physiol., 546, pp 823-836, 2003) were used.
A solution of MBS (Asahi Kasei Pharma, lot No, 040814n7-10) diluted with PBS to an appropriate concentration was added to an ELISA plate (Maxisorp, Nunc), and left, stand overnight at 4° C., and then the wells were washed twice with a washing solution (WB, washing buffer, 0.1% Tween 20/PBS). To the wells were added 1% bovine serum albumin (Sigma)/PBS, and left for 1 to 3 hours, and then the wells were washed 5 times with WB to prepare a substrate-immobilized plate. Onto this plate, a reaction mixture (5 mM MgSO4/0.1 M NaCl/20 mM HEPES (pH 7.5)/100 μM ATP/5 mM DTT), a test compound, and appropriately diluted human ROCK1 (Asahi Kasei Pharma, lot No, 030126.120-22) were added, and then reacted at 30° C. for 10 minutes. Then, 0.2 M EDTA (pH 7.5) was added to terminate the reaction, and the wells were washed 5 times with WB. A rabbit anti-phosphorylated MBS antibody solution (Asahi Kasei Pharma, lot No, 122676431) diluted 10,000 times with WB containing 1% bovine serum albumin was added to the wells, and after the reaction for 1 hour, the wells were washed 5 times with WB. Goat anti-rabbit IgG-HRP (Zymed) diluted 1,000 times with WB containing 1% bovine serum albumin was added to the wells as the secondary detection antibody and the mixture was reacted for 1 hour, and then the wells were washed 5 times with WB. An OPD (o-phenylenediamine) solution (1 mg/ml OPD, Sigma), 5.1 g/l of citric acid monohydrate, and 18.4 g/l of Na2HPO4.12H2O were added to the wells to develop color, […] was added 5 minutes later to terminate the color development, and absorbance was measured at 490 nm.
The inhibition ratio was calculated as follows. Inhibition ratio(%)=[…]
Further, the inhibition ratio was calculated with changing the concentration of the test compound, and a compound concentration providing an inhibition ratio of 50% was obtained as IC50.

T1 sequence (Q13464 1-727): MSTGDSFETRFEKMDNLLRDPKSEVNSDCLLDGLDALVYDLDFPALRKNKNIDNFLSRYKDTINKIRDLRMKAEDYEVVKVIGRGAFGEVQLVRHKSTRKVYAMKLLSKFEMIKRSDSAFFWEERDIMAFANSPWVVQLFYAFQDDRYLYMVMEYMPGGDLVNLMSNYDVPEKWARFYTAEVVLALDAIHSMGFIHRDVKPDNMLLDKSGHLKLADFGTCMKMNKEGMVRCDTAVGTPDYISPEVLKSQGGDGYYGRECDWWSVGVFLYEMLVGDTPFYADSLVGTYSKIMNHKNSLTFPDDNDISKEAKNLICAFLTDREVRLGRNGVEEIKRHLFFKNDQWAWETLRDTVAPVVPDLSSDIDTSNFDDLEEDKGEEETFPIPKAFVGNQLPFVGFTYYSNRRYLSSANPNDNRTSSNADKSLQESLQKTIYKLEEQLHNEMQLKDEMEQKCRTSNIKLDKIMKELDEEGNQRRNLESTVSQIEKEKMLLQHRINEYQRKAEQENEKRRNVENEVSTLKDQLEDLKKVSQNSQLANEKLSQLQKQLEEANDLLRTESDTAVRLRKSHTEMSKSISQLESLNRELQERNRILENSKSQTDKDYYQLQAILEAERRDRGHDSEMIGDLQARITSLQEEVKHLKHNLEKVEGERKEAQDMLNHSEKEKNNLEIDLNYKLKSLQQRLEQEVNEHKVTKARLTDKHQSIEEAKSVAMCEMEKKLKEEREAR

Compound | IC50 (human ROCK1) [µM] | inhibition in vivo at 30 mg/kg (TNF-α production) [%] | inhibition in vivo at 3000 µM [1] [%] | inhibition in vivo at 1000 µM ([1]; test compound of 1 mM, same test as Test Example 3) [%]
CN[C@H]1CCN(S(=O)(=O)c2cccc3cncc(Br)c23)C1 [Example 1-3, (S)-1-(4-Bromo-5-isoquinolinesulfonyl)-3-(methylamino)pyrrolidine] | < 1 | ≥ 50 | ≥ 20 | ≥ 20
Cc1ccc(CN[C@H]2CCN(S(=O)(=O)c3cccc4cncc(Br)c34)C2)cc1 [Example 1-12] | < 1 | ≥ 30 | – | –
O=S(=O)(c1cccc2cncc(Br)c12)N1CC[C@H](NC2CCOCC2)C1 [Example 1-30] | 1 to 3 | ≥ 30 | ≥ 20 | –
N[C@H]1CCCN(S(=O)(=O)c2cccc3cncc(Br)c23)C1 [Example 2-1, (S)-3-Amino-1-(4-bromo-5-isoquinolinesulfonyl)piperidine] | – | ≥ 50 | – | –
O=S(=O)(c1cccc2cncc(Br)c12)N1CC[C@H](NCc2ccco2)C1 [Example 4-1, (S)-3-(2-Furylmethyl)amino-1-(4-bromo-5-isoquinolinesulfonyl)pyrrolidine] | < 1 | ≥ 30 | ≥ 20 | –
Cc1ccc(CN[C@H]2CCN(S(=O)(=O)c3cccc4cncc(C)c34)C2)cc1 [Example 8-12] | < 1 | ≥ 50 | ≥ 20 | –
CN[C@H]1CCN(S(=O)(=O)c2cccc3cncc(F)c23)C1 [Example 18-3, (S)-1-(4-Fluoro-5-isoquinolinesulfonyl)-3-(methylamino)pyrrolidine] | – | ≥ 50 | ≥ 20 | –
CN[C@H]1CCN(S(=O)(=O)c2cccc3c(O)ncc(F)c23)C1 [Example 37-1, (S)-1-(1-Hydroxy-4-fluoro-5-isoquinolinesulfonyl)-3-(methylamino)pyrrolidine] | – | ≥ 30 | – | –
NCC1CN(S(=O)(=O)c2cccc3cncc(Cl)c23)C1 [Example 60, 3-(Aminomethyl)-1-(4-chloro-5-isoquinolinesulfonyl)azetidine] | 1 to 3 | – | 5 to 10 | –
COCC(=O)N[C@H]1CCN(S(=O)(=O)c2cccc3cncc(Br)c23)C1 [Example 71, (S)-3-(2-Methoxyacetyl)amino-1-(4-bromo-5-isoquinolinesulfonyl)pyrrolidine] | – | ≥ 30 | ≥ 20 | –
O=C(CCN1CCCCC1)N[C@H]1CCN(S(=O)(=O)c2cccc3cncc(Cl)c23)C1 [Example 80, (S)-3-[3-(Piperidin-1-yl)propionyl]amino-1-(4-chloro-5-isoquinolinesulfonyl)pyrrolidine] | 1 to 3 | – | 5 to 10 | –
O=C(CCN1CCNCC1)N[C@H]1CCN(S(=O)(=O)c2cccc3cncc(Cl)c23)C1 [Example 83, (S)-3-[3-(piperazin-1-yl)propionyl]amino-1-(4-chloro-5-isoquinolinesulfonyl)pyrrolidine] | 1 to 3 | – | 10 to 20 | –
O=C(Cn1cnnn1)N[C@H]1CCN(S(=O)(=O)c2cccc3cncc(Cl)c23)C1 [Example 85, (S)-3-[2-(1H-Tetrazol-1-yl)acetyl]amino-1-(4-chloro-5-isoquinolinesulfonyl)pyrrolidine] | 1 to 3 | – | 10 to 20 | –
NOCC(=O)N[C@H]1CCN(S(=O)(=O)c2cccc3cncc(Cl)c23)C1 [Example 101, (S)-3-[2-(Aminooxy)acetyl]amino-1-(4-chloro-5-isoquinolinesulfonyl)pyrrolidine] | < 1 | – | ≥ 20 | –
O=C(N[C@H]1CCN(S(=O)(=O)c2cccc3cncc(Cl)c23)C1)C1CNCCO1 (stereo partly drawn) [Example 102, N—[(S)-1-(4-chloro-5-isoquinolinesulfonyl)pyrrolidin-3-yl]morpholin-2-carboxamide] | < 1 | – | ≥ 20 | –
O=C(COc1ccccc1)N[C@H]1CCN(S(=O)(=O)c2cccc3cncc(Cl)c23)C1 [Example 103, (S)-3-(2-Phenoxyacetyl)amino-1-(4-chloro-5-isoquinolinesulfonyl)pyrrolidine] | 1 to 3 | – | ≥ 20 | –
O=C(COc1cccnc1)N[C@H]1CCN(S(=O)(=O)c2cccc3cncc(Cl)c23)C1 [Example 104, (S)-3-[2-(3-Pyridyloxy)acetyl]amino-1-(4-chloro-5-isoquinolinesulfonyl)pyrrolidine] | 1 to 3 | – | ≥ 20 | –
O=C(N[C@H]1CCN(S(=O)(=O)c2cccc3cncc(Cl)c23)C1)C1COCCO1 (stereo partly drawn) [Example 109, N—[(S)-1-(4-Chloro-5-isoquinolinesulfonyl)pyrrolidin-3-yl]-1,4-dioxane-2-carboxamide] | 1 to 3 | – | ≥ 20 | –
O=C(COC1CCOCC1)N[C@H]1CCN(S(=O)(=O)c2cccc3cncc(Cl)c23)C1 [Example 110, (S)-3-[[2-(Tetrahydro-2H-pyran-4-yloxy)]acetyl]amino-1-(4-chloro-5-isoquinolinesulfonyl)pyrrolidine] | 1 to 3 | – | ≥ 20 | –
O=C(CN1CCC1)N[C@H]1CCN(S(=O)(=O)c2cccc3cncc(Cl)c23)C1 [Example 114, (S)-3-[2-(Azetidin-1-yl)acetyl]amino-1-(4-chloro-5-isoquinolinesulfonyl)pyrrolidine] | 1 to 3 | – | 5 to 10 | –

Second part, led by results:

IC50 (human ROCK1) [µM] | Compound | inhibition in vivo at 30 mg/kg (TNF-α production) [%] | inhibition in vivo at 3000 µM [1] [%] | inhibition in vivo at 1000 µM ([1]; test compound of 1 mM, same test as Test Example 3) [%]
< 1 | C#Cc1cncc2cccc(S(=O)(=O)N3CC[C@H](N)C3)c12 [Example 10-1, (S)-3-Amino-1-(4-ethynyl-5-isoquinolinesulfonyl)pyrrolidine] | ≥ 50 | ≥ 20 | –
1 to 3 | NCC(=O)N[C@H]1CCN(S(=O)(=O)c2cccc3cncc(Cl)c23)C1 [Example 58-1, (S)-3-(2-Aminoacetyl)amino-1-(4-chloro-5-isoquinolinesulfonyl)pyrrolidine] | – | ≥ 20 | –
1 to 3 | NCCCN[C@H]1CCN(S(=O)(=O)c2cccc3cncc(Cl)c23)C1 [Example 62-1, (S)-3-(3-Aminopropyl)amino-1-(4-chloro-5-isoquinolinesulfonyl)pyrrolidine] | – | 10 to 20 | –
< 1 | O=S(=O)(c1cccc2c(O)ncc(Cl)c12)N1CC[C@H](NC2CCOCC2)C1 [Example 64-1, (S)-3-(4-Tetrahydropyranyl)amino-1-(1-hydroxy-4-chloro-5-isoquinolinesulfonyl)pyrrolidine] | – | 10 to 20 | –
< 1 | Cc1cncc2cccc(S(=O)(=O)N3CC[C@H](NCCCNC(=O)Nc4ccccc4)C3)c12 [Example 65-1, (S)—N-[3-[1-(4-Methyl-5-isoquinolinesulfonyl)pyrrolidin-3-yl]aminopropyl],N′-phenylurea] | – | 10 to 20 | –
